One assay deals with FPR2 (Homo sapiens (Human), UniProt P25090). The experiment in a line: Agonistic activity (calcium FLIPR) in hFPR2-Aq-CHO cells. Type of assay: cell-based. As to conditions: FLIPR Calcium 5 dye fluorescence, agonistic response. In a few lines:
(§1)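 CHO cells expressing hFPR1-Gα15 or hFPR2-Aq were plated 18 hours, then loaded with Calcium 5 dye (pH 7.4, probenecid) for 30 minutes at 37° C. Compounds (final 10 μM to 100 pM, 11 half-log points) were added on FLIPR, with fluorescence followed for 5 minutes. EC50 came from the rise over basal relative to no-compound wells.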

In another assay the target is FPR1 (Homo sapiens (Human), UniProt P21462). The experiment in a line: Agonistic activity (calcium FLIPR) in hFPR1-Gα15-CHO cells. The format is cell-based. As to conditions: FLIPR Calcium 5 dye fluorescence, agonistic response. In a few lines: as §1
Sequence of FPR1 (P21462 whole entry): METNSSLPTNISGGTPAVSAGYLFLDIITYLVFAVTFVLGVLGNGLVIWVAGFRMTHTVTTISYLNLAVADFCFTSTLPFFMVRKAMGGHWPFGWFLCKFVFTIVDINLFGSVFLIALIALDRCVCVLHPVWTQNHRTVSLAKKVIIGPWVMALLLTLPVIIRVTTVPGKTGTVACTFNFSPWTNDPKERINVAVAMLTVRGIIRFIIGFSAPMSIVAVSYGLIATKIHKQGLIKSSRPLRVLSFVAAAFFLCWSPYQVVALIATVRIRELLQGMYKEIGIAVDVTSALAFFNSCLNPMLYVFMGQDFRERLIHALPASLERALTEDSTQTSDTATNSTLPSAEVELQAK

Bounds are passed on as bounds.

EC50 data for 17 compounds are collected here from patent US10265310B2, “6-membered cyclic amines or lactames substituted with urea and phenyl” (GRÜNENTHAL GMBH, priority 2016, dated 2019).

What is called EC50 is the concentration needed to bring the measured effect to its halfway point.

Sequence of FPR2 (P25090 whole entry): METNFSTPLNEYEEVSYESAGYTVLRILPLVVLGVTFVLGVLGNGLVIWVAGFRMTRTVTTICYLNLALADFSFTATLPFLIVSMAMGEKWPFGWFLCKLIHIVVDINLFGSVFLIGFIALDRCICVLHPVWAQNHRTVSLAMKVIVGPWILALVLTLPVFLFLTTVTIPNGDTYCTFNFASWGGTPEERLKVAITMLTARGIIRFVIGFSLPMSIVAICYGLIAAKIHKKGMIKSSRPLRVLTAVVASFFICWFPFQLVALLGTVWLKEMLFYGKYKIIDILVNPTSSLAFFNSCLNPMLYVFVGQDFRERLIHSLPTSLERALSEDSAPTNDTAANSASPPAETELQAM

With `COc1ccc(C2CC(=O)NCC2NC(=O)Nc2ccc(Cl)cc2)c(F)c1` (single isomer, unassigned; ent1) [Example 42, trans-ent1-1-(4-chlorophenyl)-3-(4-(2-fluoro-4-methoxyphenyl)-6-oxopiperidin-3-yl)urea], the half-maximal effective concentration (EC50) on FPR2 was under 1 nM; at FPR1, 1 to 1000 nM.

As for `COc1ccc([C@@H]2CCN(C(C)=O)C[C@H]2NC(=O)Nc2cncnc2)cc1` (racemic) [Example 25, rac-trans-1-(1-acetyl-4-(4-methoxyphenyl)piperidin-3-yl)-3-(pyrimidin-5-yl)urea], the half-maximal effective concentration (EC50) on FPR2 and on FPR1 was 1 to 1000 nM in each case.

As to `COc1ccc([C@@H]2CCN(C(C)=O)C[C@H]2NC(=O)Nc2ccc(C)nc2)cc1` (racemic) [Example 26, rac-trans-1-(1-acetyl-4-(4-methoxyphenyl)piperidin-3-yl)-3-(6-methylpyridin-3-yl)urea], the EC50 at FPR2 and on FPR1 was 1 to 1000 nM each time.

As for `COc1ccc([C@@H]2CC(=O)N(CC3CC3)C[C@H]2NC(=O)Nc2ccc(Cl)cc2)cc1` (racemic) [Example 24, rac-trans-1-(4-chlorophenyl)-3-(1-(cyclopropylmethyl)-4-(4-methoxyphenyl)-6-oxopiperidin-3-yl)urea], the EC50 is under 1 nM at FPR2 and 1 to 1000 nM on FPR1.

With `COc1cc(F)c([C@@H]2CC(=O)NC[C@H]2NC(=O)Nc2ccc(Oc3ccccc3)cc2)c(F)c1` (racemic) [Example 54, rac-trans-1-[4-(2,6-Difluoro-4-methoxy-phenyl)-6-oxo-piperidin-3-yl]-3-(4-phenoxy-phenyl)-urea], the EC50 at FPR2 is under 1 nM; at FPR1 it was 1 to 1000 nM.

As for `COc1ccc([C@@H]2CCNC[C@H]2NC(=O)Nc2ccc(Br)cc2)cc1` (racemic) [Example 6, rac-trans-1-(4-bromophenyl)-3-(4-(4-methoxyphenyl)piperidin-3-yl)urea], the results for the EC50 at FPR2 and on FPR1 were under 1 nM and 1 to 1000 nM, respectively.

For `COc1ccc([C@@H]2CCN(C(=O)CCO)C[C@H]2NC(=O)Nc2ccc(Cl)cc2)cc1` (racemic) [Example 30, rac-trans-1-(4-chlorophenyl)-3-(1-(3-hydroxypropanoyl)-4-(4-methoxyphenyl)piperidin-3-yl)urea], the half-maximal effective concentration (EC50) at FPR2 and on FPR1 was under 1 nM each time.

Regarding `COc1ccc(C2CC(=O)NCC2NC(=O)Nc2ccc(Cl)cc2)c(F)c1` (single isomer, unassigned; ent2) [Example 43, trans-ent2-1-(4-chlorophenyl)-3-(4-(2-fluoro-4-methoxyphenyl)-6-oxopiperidin-3-yl)urea], the EC50 on FPR2 and at FPR1 was 1 to 1000 nM each time.

As to `COc1cc(F)c([C@@H]2CC(=O)NC[C@H]2NC(=O)Nc2ccc(Cl)c(F)c2)c(F)c1` (racemic) [Example 58, rac-trans-1-(4-Chloro-3-fluoro-phenyl)-3-[4-(2,6-difluoro-4-methoxy-phenyl)-6-oxo-piperidin-3-yl]-urea], the EC50 at FPR2 and at FPR1 was 1 to 1000 nM each time.

Take `O=C(Nc1ccc(Cl)cc1)NC1CN(CC(F)F)C(=O)CC1c1ccc(F)cc1F` (single isomer, unassigned; ent2) [Example 66, trans-ent2-1-(4-Chlorophenyl)-3-[1-(2,2-difluoro-ethyl)-4-(2,4-difluoro-phenyl)-6-oxo-piperidin-3-yl]-urea]: the EC50 on FPR2 and on FPR1 was 1 to 1000 nM in each case.

For `COc1ccc(C2CC(=O)N(CC(F)F)CC2NC(=O)Nc2ccc(Cl)cc2)c(F)c1` (single isomer, unassigned; ent1) [Example 61, trans-ent1-1-(4-Chlorophenyl)-3-[1-(2,2-difluoro-ethyl)-4-(2-fluoro-4-methoxy-phenyl)-6-oxo-piperidin-3-yl]-urea], the EC50 on FPR2 and at FPR1 was under 1 nM in each case.

In the case of `COCCN1CC(NC(=O)Nc2ccc(Cl)cc2)C(c2ccc(OC)cc2F)CC1=O` (single isomer, unassigned; ent2) [Example 60, trans-ent2-1-(4-Chlorophenyl)-3-[4-(2-fluoro-4-methoxy-phenyl)-1-(2-methoxy-ethyl)-6-oxo-piperidin-3-yl]-urea], the EC50 at FPR2 and on FPR1 was 1 to 1000 nM in each case.

Regarding `COCCC(=O)N1CC[C@@H](c2ccc(OC)cc2)[C@H](NC(=O)Nc2ccc(Cl)cc2)C1` (racemic) [Example 15, rac-trans-1-(4-chlorophenyl)-3-(4-(4-methoxyphenyl)-1-(3-methoxypropanoyl)piperidin-3-yl)urea], the concentration for a half-maximal effect (EC50) on FPR2 and at FPR1 was under 1 nM throughout.

Turning to `COCCN1CC(NC(=O)Nc2ccc(Cl)cc2)C(c2ccc(F)cc2F)CC1=O` (single isomer, unassigned; ent1) [Example 63, trans-ent1-1-(4-Chlorophenyl)-3-[4-(2,4-difluoro-phenyl)-1-(2-methoxy-ethyl)-6-oxo-piperidin-3-yl]-urea], the concentration for a half-maximal effect (EC50) at FPR2 and at FPR1 was 1 to 1000 nM throughout.

In the case of `O=C1C[C@@H](c2ccc(OC(F)F)cc2)[C@H](NC(=O)Nc2ccc(Cl)cc2)CN1` (racemic) [Example 74, rac-trans-1-(4-chlorophenyl)-3-(4-(4-(difluoromethoxy)phenyl)-6-oxopiperidin-3-yl)urea], the EC50 on FPR2 and on FPR1 was 1 to 1000 nM each time.

For `COc1cc(F)c(C2CC(=O)NCC2NC(=O)Nc2ccncc2)c(F)c1` (single isomer, unassigned; ent2) [Example 48, ent2-1-(4-(2,6-difluoro-4-methoxyphenyl)-6-oxopiperidin-3-yl)-3-(pyridin-4-yl)urea], the half-maximal effective concentration (EC50) at FPR2 and at FPR1 was 1 to 1000 nM each time.

In the case of `COc1cc(F)c(C2CC(=O)NCC2NC(=O)Nc2ccncc2)c(F)c1` (single isomer, unassigned; ent1) [Example 47, ent1-1-(4-(2,6-difluoro-4-methoxyphenyl)-6-oxopiperidin-3-yl)-3-(pyridin-4-yl)urea], the EC50 on FPR2 and at FPR1 was 1 to 1000 nM in each case.
